# Laboratory results as given in US4868203A, “Bacterial substance and pharmaceutical composition thereof” (Kabushikikaisha Ueno Seiyaku Oyo Kenkyujo, priority 1986, dated 1989).
# “And” between values parts separate entries of the source, which are not always exact repeats. Equal values may be shown once.
# Experiments:
# [1] = Solubility in various solvents
# [2] = test system: Pasteurella piscicida DM-85 strain; design: species or system yellowtail; conditions: in vivo
# [3] = test system: Campylobacter fetus; type: cell-based
# Description: (§1) The minimum growth inhibitory concentration (MIC) values of bacterial substance UFC-N11 to various kinds of bacteria determined according to the conventional method were measured in the conventional manner.
# [4] = test system: Escherichia coli NIHJ JC-2; type: cell-based
# Description: as §1
# [5] = test system: Xandomonas campestris PV campestris NIAES 1152; type: cell-based; conditions: Xandomonas campestris PV campestris NIAES 1152 (black rot)
# Description: as §1
# [6] = test system: Proteus vulgaris OX-19; type: cell-based
# Description: as §1
# [7] = test system: Pseudomonas syringae PV tabaci NIAES 1075; type: cell-based
# Description: as §1
# [8] = test system: Corynebacterium michiganence PV michiganene NIAES 1044; type: cell-based; conditions: Corynebacterium michiganence NIAES 1044 (bacterial canker of tomatoes)
# Description: as §1
# [9] = test system: Salmonella enteritidis 1891; type: cell-based
# Description: as §1
# [10] = test system: Staphylococcus aureus 209-P; type: cell-based
# Description: as §1
# [11] = test system: Salmonella typhimurium; type: cell-based
# Description: as §1
# [12] = test system: Klebsiella pneumoniae; type: cell-based
# Description: as §1
# [13] = test system: Xandomonas campestris FV Pruni 7855SMR; type: cell-based; conditions: Xandomonas campestris FV Pruni 7855SMR (bacterial spot of peach)
# Description: as §1
# [14] = test system: Ervinia carotovara subsp. carotovora NIAES 1393; type: cell-based; conditions: Ervinia carotovara NIAES 1393 (black leg of potatoes)
# Description: as §1
# [15] = test system: Bacillus subtilis 6633; type: cell-based
# Description: as §1
# [16] = test system: Pseudomonas syringae PV Mori NIAES 1020; type: cell-based; conditions: Pseudomonas syringae PV Mori NIAES 1020 (bacterial rugose)
# Description: as §1
# [17] = test system: Campylobacter jejuni; type: cell-based
# Description: as §1
# [18] = test system: Pseudomonas aeruginosa; type: cell-based
# Description: as §1
# [19] = test system: Enterobacter cloacae IID977; type: cell-based
# Description: as §1
# [20] = test system: Pseudomonas syringae PV lachrymans NIAES 1316; type: cell-based; conditions: Pseudomonas syringae PV lachrymans NIAES 1316 (angular leaf spot of cucumber)
# Description: as §1
# [21] = Absorbance by oral administration, absorption and secretion in yellowtail (Test Example 10); type: in vivo; conditions: oral 100 mg/kg
# Description: To a cultured yellowtail, UFC-N11 was compulsorily oral-administered at the rate of 100 mg/kg per body weight of fish. The tissue samples were collected 3, 8, and 24 hours later respective in order to determine the concentrations in the tissues.
# [22] = test system: Pasteurella piscicida KGP86041; type: cell-based
# [23] = test system: Aeromonas salmonicida, MC7503; experiment: Minimum growth inhibiting concentration, pathogenic bacteria of fish disease (Test Example 8); type: cell-based; conditions: MC7503 (Furunculosis of salmonids)
# Text: (§2) The minimum growth inhibitory concentrations (MIC) of the bacterial substance UFC-N11 against various bacteria were according to conventional procedure the results are as follows: […]
# [24] = test system: Vibrio anguillarum K-3; experiment: as above; type: cell-based; conditions: Vibrio anguillarum K-3 (Vibrio disease of young yellowtail)
# Text: as §2
# [25] = test system: Edwardssiella tarda 4-1; experiment: as above; type: cell-based; conditions: Edwardssiella tarda 4-1 (Edwardsiellosis of eel)
# Text: as §2
# [26] = test system: Aeromonas hydrophila IAM108; experiment: as above; type: cell-based; conditions: Aeromonas hydrophila IAM108 (Aeromonas disease of carp)
# Text: as §2
# [27] = test system: Vibrio anguillarum 25-1; experiment: as above; type: cell-based; conditions: Vibrio anguillarum 25-1 (Vibrio disease of sweetfish)
# Text: as §2
# [28] = test system: Flexibacter columnaris V-II; experiment: as above; type: cell-based; conditions: Flexibacter columnaris V-II (Columnaris disease of eel)
# Text: as §2
# [29] = test system: Pasteurella piscicida; experiment: microbe, parasite or virus in culture; type: cell-based
# [30] = test system: Xandomonas campestris PV oryzae H75373; type: cell-based
# [31] = Storage life of steamed Chinese noodles (Test Example 5)
# Description: After kneading for 10 minutes. the product was rolled and cut with cutting edge (#10) to give noodles. The resulting noodles were steamed at the temperature higher than 98° C. for 6 minutes, washed with water, packed in polyethylene packages (each weighing 40 g) and heated at 85° C. for 30 minutes. The obtained packages containing Chinese noodles (10 bags/group) were maintained at 30° C. and the change in appearance with time was observed and preservation effect was evaluated according to the following evaluation scale. The values shown in the following Table are averaged evaluation levels of degeneration.
smiles,measurement,setting,value
CC=CC=CC=CC(=O)NC(CC(=O)NC(C(=O)C1C(=O)NC(=O)C1C)C(C)C)c1ccccc1 (centres unmarked) [UFC-N11],Solubility in various solvents,"[1]; n-hexane, chloroform, benzene and water",slightly soluble or insolbule
same,Solubility in various solvents,"[1]; pyridine, acetic acid, dimethyl sulfoxide, methanol, ethanol, acetone, ethyl acetate and dimethyl ether",soluble
same,therapeutic effect,[2],excellent therapeutic effect
same,MIC,[3],1.56 µg/mL
same,MIC,[4],1.56 µg/mL
same,MIC,[5],0.1 µg/mL
same,MIC,[6],0.195 µg/mL
same,MIC,[7],12.5 µg/mL
same,MIC,[8],6.25 µg/mL
same,MIC,[9],0.78 µg/mL
same,MIC,[10],1.56 µg/mL
same,MIC,[11],6.25 µg/mL
same,MIC,[12],12.5 µg/mL
same,MIC,[13],0.1 µg/mL
same,MIC,[14],6.25 µg/mL
same,MIC,[15],0.39 µg/mL
same,MIC,[16],25 µg/mL
same,MIC,[17],0.78 µg/mL
same,MIC,[18],50 µg/mL
same,MIC,[19],25 µg/mL
same,MIC,[20],6.25 µg/mL
same,absorption,[21],absorbed in concentrations which were equal to or in excess of the anti-bacterial activity
same,"Concentration in tissue, Kidney",[21]; 3 hr,6.55 µg/g
same,"Concentration in tissue, Liver",[21]; 3 hr,8.79 µg/g
same,"Concentration in tissue, Muscle",[21]; 3 hr,0.96 µg/g
same,"Concentration in tissue, Plasma",[21]; 3 hr,2100 ng/mL
same,"Concentration in tissue, Kidney",[21]; 8 hr,4.02 µg/g
same,"Concentration in tissue, Liver",[21]; 8 hr,5.14 µg/g
same,"Concentration in tissue, Muscle",[21]; 8 hr,1.12 µg/g
same,"Concentration in tissue, Plasma",[21]; 8 hr,1340 ng/mL
same,"Concentration in tissue, Kidney",[21]; 24 hr,1.13 µg/g
same,"Concentration in tissue, Liver",[21]; 24 hr,1.36 µg/g
same,"Concentration in tissue, Muscle",[21]; 24 hr,< 0.25 µg/g
same,"Concentration in tissue, Plasma",[21]; 24 hr,< 125 ng/mL
same,MIC,[22],0.16 µg/mL
same,MIC,[23],1.25 µg/mL
same,MIC,[24],2.5 µg/mL
same,MIC,[25],2.5 µg/mL
same,MIC,[26],5.0 µg/mL
same,MIC,[27],2.5 µg/mL
same,MIC,[28],0.63 µg/mL
same,MIC,[29],0.31 µg/mL and 0.16 µg/mL
same,antibacterial activity,[29],excellent antibacterial activity
same,MIC,[30],0.05 µg/mL
same,Storage life,"[31]; 0.1 ppm, pH of product 9.39, 30° C.",6.0 days
same,Storage life,"[31]; 1.0 ppm, pH of product 9.41, 30° C.",8.1 days
same,Storage life,"[31]; 10 ppm, pH of product 9.40, 30° C.",10.0 days
same,Storage life,"[31]; 50 ppm, pH of product 9.38, 30° C.",16.0 days
same,Storage life,"[31]; 100 ppm, pH of product 9.41, 30° C.",20.0 days
same,preservability of the heated and steamed Chinese noodles,[31]; upon addition of UFC-N11,remarkably improved
